Data: US5284852A, “Angiotensin II receptor blocking 2,3,6-substituted quinazolinones” (American Cyanamid Company, priority 1993, dated 1994)

Target: T1, Angiotensin II Receptor (Bos taurus, UniProt P25104)
T1 construct: The brownish tissue forming the adrenal cortex is scraped off and finely minced with scissors before homogenization; tissue Maxwell-Cohen (local slaughter house); host or cells: beef adrenal cortex, microsomal membranes (100,000×g pellet)
T1 sequence (P25104 1-359): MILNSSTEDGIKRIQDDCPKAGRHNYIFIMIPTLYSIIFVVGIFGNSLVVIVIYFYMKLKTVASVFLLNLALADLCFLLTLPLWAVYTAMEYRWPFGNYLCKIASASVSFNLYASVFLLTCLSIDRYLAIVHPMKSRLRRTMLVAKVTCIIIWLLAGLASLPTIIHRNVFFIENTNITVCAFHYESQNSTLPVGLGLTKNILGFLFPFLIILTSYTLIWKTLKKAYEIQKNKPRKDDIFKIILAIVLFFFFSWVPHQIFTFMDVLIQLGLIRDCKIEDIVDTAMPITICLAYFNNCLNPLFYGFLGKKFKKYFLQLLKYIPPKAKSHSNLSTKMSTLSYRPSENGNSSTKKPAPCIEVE
Test: Receptor binding assay: displacement of [125I](Sar1,Ile8)AngII from beef adrenal cortex microsomal membranes
Text: Beef adrenals are obtained from a local slaughter house (Maxwell-Cohen). [^125 I](Sar^1,-Ile^8)AngII, S.A. 2200 Ci/mmole, is purchased from Dupont (NEN®, Boston, Mass.). All unlabeled AngII analogs, dimethylsulfoxide (DMSO), nucleotides, bovine serum albumin (BSA) are purchased from Sigma Chemical Co., St. Louis, Mo. U.S.A.
Approximately sixteen (16) to twenty (20) beef adrenal glands are processed as follows: fresh adrenal glands received on crushed ice are cleaned of fatty tissues and the tough membranes encapsulating the glands are removed and discarded. The brownish tissue forming the adrenal cortex is scraped off and finely minced with scissors before homogenization. Care is taken to avoid contamination with medullary tissue during dissection. The scraped cortices are suspended in twenty volumes of an ice-cold buffer medium consisting of 10 mM Tris.HCl (pH 7.4 at 22° C.) and containing 1.0 mM EDTA and 0.2M sucrose. Unless otherwise indicated, all subsequent operation are done at 4° C. […] The homogenate is centrifuged first at low speed (3,000×g) for 10 min. […] A 100 ul aliquot is withdrawn and the protein content of the preparation is determined by the Lowry's method (Lowry, O. H., Rosebrough, N. F., Farr, A. L. and Randall, R. J., Protein measurement with Folin phenol reagent. J. Biol. Chem., […], 265-275, 1951). […]

Structure (SMILES): CCCCc1nc2ccc(COc3ccccc3)cc2c(=O)n1Cc1ccc(-c2ccccc2-c2nnn[nH]2)cc1 [Example 36, 2-Butyl-6-(phenoxymethyl)-3-[[2'-(1H-tetrazol-5-yl) [1,1'-biphenyl]-4-yl]methyl]-4(3H)-quinazolinone]
- IC50: 130 nM
